# Results: patent US20140100222A1, “Beta2-ADRENOCEPTOR AGONIST FOR THE TREATMENT OF COUGH” (BOEHRINGER INGELHEIM INTERNATIONAL GMBH, priority 2012, published 2014)
# Marks after values point to notes of the source that are not given here.
# Experiments:
# [1] = test system: citric acid induced cough in OVA sensitised guinea pigs; assay: Anti-tussive activity: citric acid induced cough in OVA sensitised guinea pigs (whole body plethysmograph); format: in vivo, guinea pig; conditions: for Number of coughs: 2 h before 15 min citric acid challenge, mean; for Anti-tussive effect (%): summary
# Procedure: Animals—Male albino Dunkin-Hartley guinea pigs (350-550 g; Charles River WIGA GmbH, Sulzfeld, Germany) were used. The animals were housed in groups of 6 in solid floor cages and allowed free access to water and standard food. The guinea pigs were kept in rooms maintained at a constant temperature (22° C.±2° C.) and humidity (60%±15%), with a 12 h light cycle. The experiments were approved by the ethical committee Regierungspräsidium Tübingen, Germany.
# OVA asthma model—On days 1 and 2, the guinea pigs were immunised by subcutaneous injection of 0.5 ml per animal of a solution of ovalbumin (OVA) (40 μg/ml) and aluminium hydroxide [Al (OH)3]. On day 14, these sensitised guinea pigs were challenged with OVA by exposure to an OVA aerosol (1.25 mg/ml) for 5 minutes, using a Dräger Inhalette® (Dräger Medical AG & Co. KgaA, Lübeck, Germany). 30 minutes prior to the challenge, pyrilamine maleate (2 mg/kg i.p.) was administered to protect the animals against bronchospasm. On day 15, the citric acid challenge was given to induce cough. 2 hours before the challenge, the test compound or vehicle (saline) was delivered by intratracheal (i.t.) administration (0.5 ml/kg) under anaesthesia with isoflurane (Forene®, Abbott GmbH and CO. KG, Wiesbaden, Germany).
# Cough recording—Two hours after i.t. application, the citric acid challenge was performed. A whole body plethysmograph manufactured for guinea pigs (Buxco Research Systems, Wilmington, N.C., USA) was used for the experiments. Conscious animals were individually placed, unrestrained, into a whole body plethysmograph chamber. A solution of citric acid (0.4 M) was nebulised using the Aerosol Delivery System (Buxco) and administered to the animals at a rate of nebulisation of 0.18 ml/min for 15 min. During the challenge, airflow in the chamber was recorded by the Buxco system and analysed for the transient increase in airflow produced by cough, in which rapid inspiration is followed by rapid expiration. The system was able to distinguish coughs from other expiratory responses, and the number of coughs was counted.
# Data analysis—Data from the treatment groups were compared with the vehicle group. Data are expressed as mean ±SEM of coughs produced by guinea pigs within each group during a 15 minutes citric acid aerosol exposure. Mean values were statistically analyzed by one-way analysis of variance (ANOVA) followed by the Dunnett's Multiple comparisons Test to evaluate significant differences between groups with p<0.05 being considered significant.
# [2] = test system: acetylcholine induced bronchoconstriction in guinea pigs; assay: Bronchoprotection: acetylcholine induced bronchospasm in anaesthetised guinea pigs (Konzett-Rössler); format: in vivo, guinea pig; conditions: for Bronchoconstriction (ml overflow): 2 h before acetylcholine 14 μg/kg i.v., mean; for bronchoprotective FED: first dose without side-effect displaying 80 to 100% efficacy
# Procedure: Animal-Male and female Dunkin-Harley guinea pigs were obtained from the Experimental Animal Breeding Centre of Harlan Winkelmann (Germany). After fasting overnight, but with free access to drinking water, animals with body weight of 400-500 g are used. Anesthesia and preparation-The anesthesia was induced by intraperitoneal injection of 50 mg/kg pentobarbital. Anesthesia was prolonged by intravenous infusion of pentobarbital (15 mg/kg/h) via the jugular vein. A tracheal cannula was introduced after tracheotomy for artificial ventilation. The internal jugular vein was cannulated for acetylcholine injection. Instrumentation-Bronchospasm was recorded with a modified version of the method of Konzett-Röβler described by […] et al, 1997. […] Lung resistance was measured as ml of overflow and was recorded, amplified and saved under Notocord files (Notocord-hem, Notocord, France). Blood pressure and heart rate were monitored from a carotid artery in order to check the anesthesia and the variability of the preparation. Experimental protocol-2 hours before acetylcholine challenge, guinea pigs were given the test compound or its vehicle intra-tracheally under a slight isoflurane anesthesia. 30 minutes before acetylcholine challenge, lung resistance and blood pressure were measured under anesthesia. […] Data analysis-Data from the treatment groups were compared with the vehicle group. Data are expressed as mean ±SD of ml of overflow. […] Mean values were statistically analyzed by one-way analysis of variance (ANOVA) followed by the Dunnett's Multiple comparisons Test to evaluate significant differences between groups with p<0.05 being considered significant.
# [3] = test system: heart rate; assay: Side-effects: increase in heart rate after drug instillation
# Procedure: In the following the heart rate is expressed as a percentage of the pre-value (heart beats per minute) preceding the drug administration. The increase in heart rate expressed in percent corresponds to the difference of heart rate between the vehicle group and the treated group recorded 20 minutes after drug instillation.
# [4] = test system: cough reflex; conditions: inhaled therapy in asthma, COPD or IPF; therapeutic doses; cited from earlier work
# [5] = 1 μg/kg i.t., inhibition of acetylcholine bronchoconstriction
# [6] = Dunkin-Hartley, guinea pig, in vivo, 20 min
smiles,measurement,setting,value
COc1ccc2c3c1O[C@H]1[C@@H](O)C=C[C@H]4[C@@H](C2)N(C)CC[C@@]341 [Codeine],Inhibition of cough (%) vs vehicle,[1]; 1 mg/kg i.t.,17%
same,Number of coughs,[1]; 1 mg/kg i.t.,20
same,Inhibition of cough (%) vs vehicle,[1]; 3 mg/kg i.t.,42 * %
same,Number of coughs,[1]; 3 mg/kg i.t.,14
same,Inhibition of cough (%) vs vehicle,[1]; 10 mg/kg i.t.,58 * %
same,Number of coughs,[1]; 10 mg/kg i.t.,10
same,Inhibition of cough (%) vs vehicle,[1]; 30 mg/kg i.t.,71 * %
same,Number of coughs,[1]; 30 mg/kg i.t.,7
COc1ccc(CC(C)(C)NC[C@H](O)c2cc(O)cc3c2OCC(=O)N3)cc1 [Olodaterol],Bronchoconstriction (ml overflow),[2]; 0.01 μg/kg i.t.,25 mL
same,Bronchoprotection (%),"[2]; 0.01 μg/kg i.t., inhibition of acetylcholine bronchoconstriction",32%
same,Bronchoconstriction (ml overflow),[2]; 0.03 μg/kg i.t.,14 mL
same,Bronchoprotection (%),"[2]; 0.03 μg/kg i.t., inhibition of acetylcholine bronchoconstriction",62 * %
same,Bronchoconstriction (ml overflow),[2]; 0.1 μg/kg i.t.,8 mL
same,Bronchoprotection (%),"[2]; 0.1 μg/kg i.t., inhibition of acetylcholine bronchoconstriction",78 * %
same,Bronchoconstriction (ml overflow),[2]; 0.3 μg/kg i.t.,4 mL
same,Bronchoprotection (%),"[2]; 0.3 μg/kg i.t., inhibition of acetylcholine bronchoconstriction",89 * %
same,Bronchoconstriction (ml overflow),[2]; 1 μg/kg i.t.,2 mL
same,Bronchoprotection (%),[2]; [5],95 * %
same,bronchoprotective FED,[2],0.3 µg/kg
same,minimum effective dose for bronchoprotection,[2]; i.t.,0.01 µg/kg
same,Bronchoprotection (%),"[2]; summary, 0.01 μg/kg",32%
same,Bronchoprotection (%),"[2]; summary, 0.03 μg/kg",62%
same,Bronchoprotection (%),"[2]; summary, 0.1 μg/kg",78%
same,Bronchoprotection (%),"[2]; summary, 0.3 μg/kg",89%
same,Bronchoprotection (%),"[2]; summary, 1 μg/kg",95%
same,Inhibition of cough (%) vs vehicle,[1]; 0.01 μg/kg i.t.,33%
same,Number of coughs,[1]; 0.01 μg/kg i.t.,16
same,Inhibition of cough (%) vs vehicle,[1]; 0.03 μg/kg i.t.,58 * %
same,Number of coughs,[1]; 0.03 μg/kg i.t.,10
same,Inhibition of cough (%) vs vehicle,[1]; 0.1 μg/kg i.t.,79 * %
same,Number of coughs,[1]; 0.1 μg/kg i.t.,5
same,Inhibition of cough (%) vs vehicle,[1]; 0.3 μg/kg i.t.,79 * %
same,Number of coughs,[1]; 0.3 μg/kg i.t.,5
same,Inhibition of cough (%) vs vehicle,[1]; 1 μg/kg i.t.,75 * %
same,Number of coughs,[1]; 1 μg/kg i.t.,6
same,Inhibition of cough (%) vs vehicle,[1]; 3 μg/kg i.t.,79 * %
same,Number of coughs,[1]; 3 μg/kg i.t.,5
same,antitussive Fully Effective Dose (FED),[1]; first dose without side-effect displaying 70 to 80% efficacy,0.1 µg/kg
same,Anti-tussive effect (%),[1]; 0.01 μg/kg,33%
same,Anti-tussive effect (%),[1]; 0.03 μg/kg,58%
same,Anti-tussive effect (%),[1]; 0.1 μg/kg,79%
same,Anti-tussive effect (%),[1]; 0.3 μg/kg,79%
same,Anti-tussive effect (%),[1]; 1 μg/kg,75%
same,Dose inducing side-effect (increase in heart rate),[3]; [6],30 µg/kg
same,ratio dose inducing side-effect/antitussive FED,[3]; [6],300
same,ratio dose inducing side-effect/bronchoprotective FED,[3]; [6],100
same,addiction or arrhythmia,[3]; in vivo,no addiction or arrhythmia
COc1ccc(CC(C)NCC(O)c2ccc(O)c(NC=O)c2)cc1 (stereo not drawn) [Formoterol],Inhibition of cough (%) vs vehicle,[1]; 1 μg/kg i.t.,0%
same,Number of coughs,[1]; 1 μg/kg i.t.,26
same,Inhibition of cough (%) vs vehicle,[1]; 3 μg/kg i.t.,71 * %
same,Number of coughs,[1]; 3 μg/kg i.t.,7
same,Inhibition of cough (%) vs vehicle,[1]; 10 μg/kg i.t.,58 * %
same,Number of coughs,[1]; 10 μg/kg i.t.,10
same,Anti-tussive effect (%),[1]; 3 μg/kg,71%
same,Anti-tussive effect (%),[1]; 10 μg/kg,58%
same,increase in heart rate,"[3]; 10 μg/kg, 20 min after administration",21%
same,Dose inducing side-effect (increase in heart rate),"[3]; first dose increasing heart rate at least 10% vs vehicle, 20 min after administration",10 µg/kg
CCc1cc2c(cc1CC)CC(NC[C@H](O)c1ccc(O)c3[nH]c(=O)ccc13)C2 [Indacaterol],Bronchoconstriction (ml overflow),[2]; 1 μg/kg i.t.,34 mL
same,Bronchoprotection (%),[2]; [5],8%
same,Bronchoconstriction (ml overflow),[2]; 3 μg/kg i.t.,18 mL
same,Bronchoprotection (%),"[2]; 3 μg/kg i.t., inhibition of acetylcholine bronchoconstriction",51 * %
same,Bronchoconstriction (ml overflow),[2]; 10 μg/kg i.t.,6 mL
same,Bronchoprotection (%),"[2]; 10 μg/kg i.t., inhibition of acetylcholine bronchoconstriction",84 * %
same,Bronchoconstriction (ml overflow),[2]; 30 μg/kg i.t.,5 mL
same,Bronchoprotection (%),"[2]; 30 μg/kg i.t., inhibition of acetylcholine bronchoconstriction",86 * %
same,ED50,"[2]; Cavia porcellus, inhaled or nasal, i.t.",3 µg/kg
same,bronchoprotective FED,[2],10 µg/kg
same,Bronchoprotection (%),"[2]; summary, 1 μg/kg",8%
same,Bronchoprotection (%),"[2]; summary, 3 μg/kg",51%
same,Bronchoprotection (%),"[2]; summary, 10 μg/kg",84%
same,Bronchoprotection (%),"[2]; summary, 30 μg/kg",86%
same,Inhibition of cough (%) vs vehicle,[1]; 3 μg/kg i.t.,0%
same,Number of coughs,[1]; 3 μg/kg i.t.,26
same,Inhibition of cough (%) vs vehicle,[1]; 10 μg/kg i.t.,0%
same,Number of coughs,[1]; 10 μg/kg i.t.,32
same,Inhibition of cough (%) vs vehicle,[1]; 30 μg/kg i.t.,0%
same,Number of coughs,[1]; 30 μg/kg i.t.,38
same,Anti-tussive effect (%),[1]; 3 μg/kg,0%
same,Anti-tussive effect (%),[1]; 10 μg/kg,0%
same,Anti-tussive effect (%),[1]; 30 μg/kg,0%
same,Dose inducing side-effect (increase in heart rate),[3]; [6],100 µg/kg
same,ratio dose inducing side-effect/bronchoprotective FED,"[3]; guinea pig, in vivo, 20 min",10
same,"safety margin, times less than for Olodaterol","[3]; guinea pig, in vivo, 20 min",10
OCc1cc(C(O)CNCCCCCCOCCCCc2ccccc2)ccc1O (stereo not drawn) [Salmeterol],effect on cough reflex,[4],display anti-tussive effect
